Laboratory results: patent publication US20140357725A1, “TERPENE ANALOGUES AND USES THEREOF FOR TREATING NEUROLOGICAL CONDITIONS” (NEUROQUEST INC., priority 2011, published 2014)
Read-outs that look alike come from different tables or passages of the source.

Assays:
[1] = test system: voltage-gated Na+ channels; test: Sodium (Na+) channel analysis in rat DRG neurons using whole cell patch-clamp; format: cell-based
Protocol: Isolated DRG neurons were suspended in primary neuron basal media and placed on glass coverslips for incubation in humidified atmosphere of 5% CO2 at 37° C. Coverslip carrying cells was transferred to the bath of an inverted microscope (Zeiss), continuously perfused with oxygenated artificial cerebro-spinal fluid (ACSF) containing (in mM) 124 NaCl, 2.5 KCl, 2 CaCl2, 1 MgSO4, 25 NaHCO3, 1 NaH2PO4, and 10 glucose, at a rate of 2-3 ml/min. Recording of whole-cell membrane currents were made at room temperature. Recording pipette (4-6 MO) was filled with internal solution containing (in mM) 145 K-gluconate, 5 NaCl, 1 MgCl2, 0.2 EGTA, 10 HEPES, 2 Mg-ATP, 0.1 Na-GTP, and 10 phosphocreatine. To isolate Na^+ currents, DRG neurons were superfused with ACSF containing tetraethylammonium chloride (TEA) 5 mM, cesium chloride (CsCl) 100 μM and cadmium chloride (CdCl) 1 mM, to block potassium and calcium currents. OBM compounds were freshly dissolved in ASCF containing TEA, CsCl and CdCl, prior application via the bath.
For recording Na^+ currents, cells were held at −60 mV before applying a conditioning hyperpolarizing step (50 ms) to −90 mv to reactivate the voltage-gated Na^+ channels. The conditioning pulse was followed by depolarizing (150 ms) test pulses to 50 mV in 10 mV increments. Na^+ currents were recorded in absence, after 3 min in presence of the drugs and after a recovery time of 3 min.

zebrafish embryos = test: Zebrafish response assay (embryonic touch response/swim behaviour, complete anaesthesia); format: in vivo; settings: Danio rerio, 1.5 h; complete anaesthesia (scale 1) in 50% of embryos, 90 min at 28° C., 54 hpf AB wild type embryos
Excerpt: Briefly, the ZEA assay involved applying essential oils, fractions or individual compounds to developmentally staged zebrafish embryos followed by monitoring of embryonic touch response/swim behaviour and evaluation of the dose response relationship for each substance. Using a four point scale to describe the embryonic behaviours (Table 4), initial analysis focused on monitoring and recording these changes and evaluating the level of bioactivity. […] (optimal temperature for embryonic growth) in the diluted compound. • The four point scale (Table 4) was used to evaluate the touch response and swim behaviour for each embryo in all wells. • The effectiveness of the compound was based on its ability to generate complete anesthesia (scale: 1) in 50% of the embryos at a given concentration (EC50). • The EC50 values were calculated using GraphPad Prism® software to analyze the log (dose) response curves. The results are shown in Table 3, and in FIG. 3 as a dose response curve of zebrafish embryo assay, a percentage response versus percentage of compound present.

TRPV1 = target: T1, TRPV1 (Homo sapiens, UniProt Q8NER1); test: TRPV1 assay, calcium imaging; format: cell-based; settings: Ca2+ imaging after 1 μM capsaicin, HEK-TRPV cells
T1 construct: expressed in transfected cells; host or cells: HEK-TRPV cells
Protocol: Briefly, cells were seeded into poly-L-lysine-coated, glass-bottom, 24-well plates (1×10^5 cells/well) and incubated overnight under standard culture conditions to achieve the desired confluency. Culture media was removed and cells were washed twice with HBS prior to incubation for 15 to 60 min at 37° C. with a labelling mixture comprised of Fura-2-AM and pluronic acid in HBS. Data collection occurred over an eight minute period and followed the same general sequence. Following loading, cells were stimulated by addition of 1 μM of capsaicin agonist for 2 min, after which a concentration series of the test sample (e.g. (0.5, 5, 10, 50 μg/ml) was added and imaging continued for an additional 5 min. Capsazepine (20 μM) served as a known reference antagonist, while cells that were mock-treated or received vehicle (e.g., DMSO) alone served as negative controls. For imaging, plates were placed on the stage of an inverted epifluorescence microscope (e.g., Axiovert 200, Zeiss) equipped with a CCD digital camera (e.g., Axiocam MRm, Zeiss). For each well of the plate, a sequence of image pairs (excitation at 340 nm and 380 nm) were collected to capture intracellular calcium flux. Image sequences were analyzed in ImageJ (NIH) and average pixel intensities calculated for six representative cells in each test condition to achieve mean fluorescence.

[2] = Na+ currents, rat DRG neurons, whole-cell patch clamp, 3 min in presence of drug, read-out: IC50

T1 sequence (Q8NER1 whole entry, species assumed): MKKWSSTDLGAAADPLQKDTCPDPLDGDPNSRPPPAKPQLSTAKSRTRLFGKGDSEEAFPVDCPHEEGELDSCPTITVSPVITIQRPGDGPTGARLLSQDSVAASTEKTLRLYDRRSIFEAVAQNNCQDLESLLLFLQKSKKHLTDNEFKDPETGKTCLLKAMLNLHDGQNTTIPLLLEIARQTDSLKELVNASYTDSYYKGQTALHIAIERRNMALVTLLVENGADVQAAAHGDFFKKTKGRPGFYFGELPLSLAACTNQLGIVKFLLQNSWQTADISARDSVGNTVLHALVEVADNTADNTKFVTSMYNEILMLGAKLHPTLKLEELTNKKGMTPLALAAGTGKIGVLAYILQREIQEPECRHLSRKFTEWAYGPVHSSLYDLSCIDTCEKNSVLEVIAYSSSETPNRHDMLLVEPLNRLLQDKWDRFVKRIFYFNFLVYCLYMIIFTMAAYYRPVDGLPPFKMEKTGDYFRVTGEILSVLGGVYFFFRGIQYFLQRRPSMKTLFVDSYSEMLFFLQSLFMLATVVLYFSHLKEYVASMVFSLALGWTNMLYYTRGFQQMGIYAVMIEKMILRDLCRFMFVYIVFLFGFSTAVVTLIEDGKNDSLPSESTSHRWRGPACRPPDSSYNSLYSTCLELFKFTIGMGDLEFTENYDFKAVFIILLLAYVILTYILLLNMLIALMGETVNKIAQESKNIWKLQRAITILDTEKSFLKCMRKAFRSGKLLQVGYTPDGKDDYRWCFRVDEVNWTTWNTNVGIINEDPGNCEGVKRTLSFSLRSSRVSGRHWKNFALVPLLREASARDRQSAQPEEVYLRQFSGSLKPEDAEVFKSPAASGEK

Row | Structure (SMILES) | IC50 [1, 2] | IC50 ([1]; percentage sodium current versus concentration, FIG. 1, read-out: Calculated IC50) | IC50 (TRPV1) | EC50 (zebrafish embryos)
1 | COCC1CC1(C)CCC=C(C)C (centres unmarked) [OBM 2989, 2-(methoxymethyl)-1-methyl-1-(4-methylpent-3-en-1-yl)cyclopropane] | 5000 to 10000 µM | – | – | > 450 µM
2 | CC(C)=CCCC1(C)CC1COCc1ccccc1 (centres unmarked) [OBM 2993] | < 10000 µM | – | – | > 450 µM
3 | CC(C)=CCCC1(C)CC1COCc1ccccc1Br (centres unmarked) [OBM 2994, 1-bromo-2-(((2-methyl-2-(4-methylpent-3-en-1-yl)cyclopropyl)methoxy)methyl)benzene] | < 10000 µM | – | – | > 450 µM
4 | CC(C)=CCCC1(C)CC1COCc1ccccc1Cl (centres unmarked) [OBM 2995, 1-chloro-2-(((2-methyl-2-(4-methylpent-3-en-1-yl)cyclopropyl)methoxy)methyl)benzene] | < 10000 µM | – | – | > 450 µM

Now from value to compound, other results behind:

Row | IC50 [1, 2] | IC50 ([1]; percentage sodium current versus concentration, FIG. 1, read-out: Calculated IC50) | IC50 (TRPV1) | Structure (SMILES) | EC50 (zebrafish embryos)
5 | 100 to 1000 µM | 700 µM | agonist | CC(C)=CCCC1(C)CC1CO (centres unmarked) [OBM 2979, (2-methyl-2-(4-methylpent-3-en-1-yl)cyclopropyl)methanol] | 1 to 100 µM
6 | 1000 to 5000 µM | – | – | CC(C)=CCCC1(c2ccccc2)CC1CO (centres unmarked) [OBM 2999, (2-(4-methylpent-3-en-1-yl)-2-phenylcyclopropyl) methanol] | 100 to 450 µM
